This note sets out measurements from patent US8501446B2 (Vertex Pharmaceuticals Incorporated, priority 2004, dated 2013).

Some results are limits rather than exact numbers.

What all share (type): biochemical
The target in experiment [1] is T1, ROCK I (AA 6-553) (Homo sapiens, UniProt Q13464).
T1 construct: ROCK I (AA 6-553)
The experiment can be described thus: ROCK inhibition assay, standard coupled enzyme system ("Enzyme"). Conditions: enzyme-linked assay. In short, it runs like this:
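ROCK I (AA 6-553) at 45 nM and 30 °C with 45 μM ATP and 200 μM peptide, in 100 mM HEPES pH 7.5, 10 mM MgCl2, 25 mM NaCl, 2 mM DTT, 1.5% DMSO. ADP output read by a PK/LDH coupled system: 2.5 mM PEP, 350 μM NADH, 30 μg/ml PK, 10 μg/ml LDH.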

For experiment [2], the target named is T2, full length Aurora-A (AA 1-403) (Homo sapiens, UniProt O14965).
T2 construct: full length Aurora-A (AA 1-403)
T2 sequence (O14965 1-403): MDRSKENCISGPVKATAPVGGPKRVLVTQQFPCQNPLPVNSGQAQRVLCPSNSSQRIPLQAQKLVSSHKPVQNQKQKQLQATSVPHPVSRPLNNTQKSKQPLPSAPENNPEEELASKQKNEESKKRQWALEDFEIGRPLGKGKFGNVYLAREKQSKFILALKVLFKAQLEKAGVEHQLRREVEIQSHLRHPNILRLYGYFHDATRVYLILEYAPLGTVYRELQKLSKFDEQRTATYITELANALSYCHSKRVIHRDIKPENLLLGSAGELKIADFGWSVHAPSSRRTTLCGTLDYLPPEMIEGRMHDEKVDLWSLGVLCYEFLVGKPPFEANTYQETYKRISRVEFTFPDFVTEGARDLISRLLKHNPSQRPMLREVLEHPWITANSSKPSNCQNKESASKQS
The experiment can be described thus: Aurora-A inhibition assay, standard coupled enzyme system. As to conditions: average Ki if more than one value determined.

Experiment [3] has as its target T3, Aurora-C (Homo sapiens, UniProt Q9UQB9).
T3 sequence (Q9UQB9 1-309): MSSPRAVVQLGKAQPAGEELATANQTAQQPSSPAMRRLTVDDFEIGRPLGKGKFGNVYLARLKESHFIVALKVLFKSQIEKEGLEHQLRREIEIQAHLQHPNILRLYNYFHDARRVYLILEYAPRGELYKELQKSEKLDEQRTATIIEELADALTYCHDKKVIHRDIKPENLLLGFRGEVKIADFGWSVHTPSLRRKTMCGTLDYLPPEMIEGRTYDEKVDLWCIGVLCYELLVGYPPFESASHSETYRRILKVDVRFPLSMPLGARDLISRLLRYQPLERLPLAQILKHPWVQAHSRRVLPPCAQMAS
Nature of the experiment: Aurora-C inhibition assay, coupled enzyme system as for Aurora-A. Conditions: average Ki if more than one value determined. The procedure: Compounds were screened for their ability to inhibit full length Aurora-A (AA 1-403) activity using a standard coupled enzyme system (Fox et al., Protein Sci. 7, pp. 2249 (1998)). Reactions were carried out in a solution containing 100 mM HEPES (pH 7.5), 10 mM MgCl2, 25 mM NaCl, 300 μM NADH, 1 mM DTT and 3% DMSO. Final substrate concentrations in the assay were 200 μM ATP (Sigma Chemicals, St Louis, Mo.) and 800 μM peptide (LRRASLG, American Peptide, Sunnyvale, Calif.). Reactions were carried out at 30° C. and 35 nM Aurora-A. Final concentrations of the components of the coupled enzyme system were 2.5 mM phosphoenolpyruvate, 200 μM NADH, 60 μg/ml pyruvate kinase and 20 μg/ml lactate dehydrogenase.
An assay stock buffer solution was prepared containing all of the reagents listed above with the exception of ATP and the test compound of interest. The assay stock buffer solution (60 μl) was incubated in a 96 well plate with 2 μl of the test compound of interest at final concentrations spanning 0.002 μM to 30 μM at 30° C. for 10 min. Typically, a 12 point titration was conducted by preparing serial dilutions (from 1 mM compound stocks) with DMSO of the test compounds in daughter plates. The reaction was initiated by the addition of 5 μl of ATP (final concentration 200 μM). Rates of reaction were obtained using a Molecular Devices Spectramax plate reader (Sunnyvale, Calif.) over 10 min at 30° C. The Ki values were determined from the rate data as a function of inhibitor concentration using computerized nonlinear regression (Prism 3.0, Graphpad Software, San Diego, Calif.). Aurora-C activity was screened in a similar manner using Aurora-C protein. Aurora-B activity was screened using a radioactive assay, such as described in Examples 1 and 2, but using Aurora-B protein.

Experiment [4] has as its target Aurora-B (Homo sapiens, UniProt Q96GD4). The experiment can be described thus: Aurora-B inhibition assay, radioactive assay. Conditions: average Ki if more than one value determined. The essentials: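 Radiometric [γ-33P]ATP kinase assay run as described for JAK3/ROCK but with Aurora-B protein; 33P incorporation into substrate measured by filter capture and scintillation counting after TCA quench. Background-subtracted data fit to give Ki(app).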

In experiment [5] the target is T4, JAK3 (Homo sapiens, UniProt P52333).
T4 sequence (P52333 1-1124): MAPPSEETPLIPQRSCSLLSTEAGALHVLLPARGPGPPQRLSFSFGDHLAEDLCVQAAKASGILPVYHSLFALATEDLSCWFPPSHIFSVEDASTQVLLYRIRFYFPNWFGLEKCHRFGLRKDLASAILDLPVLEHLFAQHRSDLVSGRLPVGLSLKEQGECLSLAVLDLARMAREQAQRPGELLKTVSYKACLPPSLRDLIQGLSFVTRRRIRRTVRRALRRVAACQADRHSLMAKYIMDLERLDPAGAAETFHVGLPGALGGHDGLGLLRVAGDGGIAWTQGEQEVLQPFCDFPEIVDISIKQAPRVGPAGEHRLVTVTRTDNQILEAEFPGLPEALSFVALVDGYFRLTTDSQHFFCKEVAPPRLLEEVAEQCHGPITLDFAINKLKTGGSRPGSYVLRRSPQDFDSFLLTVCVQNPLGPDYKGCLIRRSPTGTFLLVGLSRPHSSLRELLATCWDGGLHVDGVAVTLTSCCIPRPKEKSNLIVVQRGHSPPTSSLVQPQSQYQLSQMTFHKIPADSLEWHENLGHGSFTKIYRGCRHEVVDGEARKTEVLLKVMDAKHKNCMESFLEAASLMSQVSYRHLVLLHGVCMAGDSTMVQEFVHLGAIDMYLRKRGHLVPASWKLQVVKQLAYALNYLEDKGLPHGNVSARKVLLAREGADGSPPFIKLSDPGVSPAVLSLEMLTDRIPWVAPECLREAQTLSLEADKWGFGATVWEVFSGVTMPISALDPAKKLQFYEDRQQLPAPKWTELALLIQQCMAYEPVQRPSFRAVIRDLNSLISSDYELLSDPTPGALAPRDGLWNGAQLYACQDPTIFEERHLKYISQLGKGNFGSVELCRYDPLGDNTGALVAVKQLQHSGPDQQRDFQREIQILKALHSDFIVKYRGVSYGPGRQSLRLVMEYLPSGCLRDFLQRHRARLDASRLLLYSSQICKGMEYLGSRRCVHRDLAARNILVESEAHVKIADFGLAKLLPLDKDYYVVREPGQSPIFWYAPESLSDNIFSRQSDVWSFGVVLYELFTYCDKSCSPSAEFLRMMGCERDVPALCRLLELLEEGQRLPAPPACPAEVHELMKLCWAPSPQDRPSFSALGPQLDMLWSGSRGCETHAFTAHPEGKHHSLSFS
The experiment can be described thus: JAK3 inhibition assay (standard radioactive enzyme assay). As to conditions: average Ki if more than one value determined.

Sequence of Aurora-B (Q96GD4 whole entry): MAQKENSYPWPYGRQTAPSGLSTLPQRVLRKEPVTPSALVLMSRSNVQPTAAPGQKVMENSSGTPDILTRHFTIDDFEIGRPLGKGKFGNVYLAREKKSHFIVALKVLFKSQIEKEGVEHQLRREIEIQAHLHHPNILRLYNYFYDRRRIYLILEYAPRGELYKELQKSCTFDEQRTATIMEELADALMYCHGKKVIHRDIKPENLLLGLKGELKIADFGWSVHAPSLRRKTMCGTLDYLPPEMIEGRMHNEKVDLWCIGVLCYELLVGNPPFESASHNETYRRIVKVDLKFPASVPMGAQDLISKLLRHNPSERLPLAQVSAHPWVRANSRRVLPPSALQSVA
T1 sequence (Q13464 6-553, species assumed): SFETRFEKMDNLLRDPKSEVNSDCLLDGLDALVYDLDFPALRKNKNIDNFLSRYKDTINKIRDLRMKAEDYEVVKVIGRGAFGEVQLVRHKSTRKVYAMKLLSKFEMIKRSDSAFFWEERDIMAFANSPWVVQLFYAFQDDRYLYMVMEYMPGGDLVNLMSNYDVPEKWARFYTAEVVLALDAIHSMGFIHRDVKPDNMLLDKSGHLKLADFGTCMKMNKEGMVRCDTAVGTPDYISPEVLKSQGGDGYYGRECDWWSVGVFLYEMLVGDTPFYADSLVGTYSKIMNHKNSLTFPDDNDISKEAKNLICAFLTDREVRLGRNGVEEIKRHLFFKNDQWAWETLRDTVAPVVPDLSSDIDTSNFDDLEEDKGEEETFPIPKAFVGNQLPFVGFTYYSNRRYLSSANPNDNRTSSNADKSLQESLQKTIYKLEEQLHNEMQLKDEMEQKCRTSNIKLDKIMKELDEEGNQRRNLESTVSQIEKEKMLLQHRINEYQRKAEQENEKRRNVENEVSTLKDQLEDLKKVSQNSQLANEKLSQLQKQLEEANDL

Usually Ki stands for a measure of affinity in units of concentration, obtained from inhibition or displacement. `CC(C)S(=O)(=O)NCCNC(=O)[C@H](C)Nc1nc(-c2c[nH]c3ncc(Cl)cc23)ncc1F` [Compound 454]: the Ki in experiment [1] is 500 to 5000 nM; in experiment [2], less than 500 nM; in experiment [3], 500 to 5000 nM; in experiment [4], 500 to 5000 nM.

For the compound `C[C@H](Nc1nc(-c2c[nH]c3ncc(Cl)cc23)ncc1F)c1cccc(O)c1` [Compound 306], the Ki is 500 to 5000 nM in experiment [1], less than 500 nM in experiment [2], less than 500 nM in experiment [3] and less than 500 nM in experiment [4].

As for `Fc1cnc(-c2c[nH]c3ncc(Cl)cc23)nc1NCC1CCNCC1` [Compound 327], the inhibition constant (Ki) in experiment [1], in experiment [2], in experiment [3] and in experiment [4] was less than 500 nM each time.

Turning to `C#Cc1cnc(-c2c[nH]c3ncc(Cl)cc23)nc1N[C@@H](C)C(=O)NCC(F)(F)F` [Compound 411], the values for the Ki in experiment [1], in experiment [2] and in experiment [3] were 500 to 5000 nM, less than 500 nM and less than 500 nM, respectively.

Consider `C[C@H](Nc1cccc(-c2c[nH]c3ncc(Cl)cc23)n1)c1ccccc1` [Compound 252], for which the inhibitory constant (Ki) was 500 to 5000 nM in experiment [1], less than 500 nM in experiment [2] and less than 500 nM in experiment [3].

Regarding `C[C@H](Nc1cc(CO)nc(-c2c[nH]c3ncc(Cl)cc23)n1)c1ccc(F)cc1` [Compound 339], the inhibitory constant (Ki) in experiment [1] is 500 to 5000 nM; in experiment [2], less than 500 nM; in experiment [3] it was less than 500 nM; in experiment [4], less than 500 nM.

As for `Fc1cnc(-c2c[nH]c3ncc(Cl)cc23)nc1NC1CCCCC1` [Compound 356], the inhibitory constant (Ki) in experiment [1] is 500 to 5000 nM; in experiment [2], less than 500 nM; in experiment [3], less than 500 nM; in experiment [4] it was less than 500 nM.

For `CNC(=O)[C@@H](Nc1nc(-c2c[nH]c3ncc(Cl)cc23)ncc1F)C(C)C` [Compound 362], the Ki was 500 to 5000 nM in experiment [1], less than 500 nM in experiment [2], less than 500 nM in experiment [3] and less than 500 nM in experiment [4].

Regarding `C[C@H](Nc1nc(-c2c[nH]c3ncc(Cl)cc23)ncc1F)c1cccc(O[C@H]2CCNC2)c1` [Compound 321], the inhibition constant Ki is 500 to 5000 nM in experiment [1], less than 500 nM in experiment [2], less than 500 nM in experiment [3] and 500 to 5000 nM in experiment [4].

Take `CNC(=O)c1cc(N[C@@H](C)c2ccc(F)cc2)nc(-c2c[nH]c3ncc(Cl)cc23)n1` [Compound 359]: the inhibition constant (Ki) is 500 to 5000 nM in experiment [1], less than 500 nM in experiment [2], less than 500 nM in experiment [3] and less than 500 nM in experiment [4].

For `CCS(=O)(=O)NCCNC(=O)[C@H](C)Nc1nc(-c2c[nH]c3ncc(Cl)cc23)ncc1F` [Compound 445], the inhibitory constant (Ki) was less than 500 nM in experiment [2], less than 500 nM in experiment [3] and 500 to 5000 nM in experiment [4].

Regarding `Clc1ccc(CNc2ccnc(-c3c[nH]c4ncc(Cl)cc34)n2)cc1` [Compound 237], the Ki was 500 to 5000 nM in experiment [1], less than 500 nM in experiment [2], less than 500 nM in experiment [3] and less than 500 nM in experiment [4].

Consider `COc1cnc(-c2c[nH]c3ncc(Cl)cc23)nc1N[C@@H](C)C(=O)NCC(F)(F)F` [Compound 407], for which the Ki in experiment [1] was 500 to 5000 nM; in experiment [2], less than 500 nM; in experiment [3] it was less than 500 nM.

As for `CCSCCNC(=O)[C@H](C)Nc1nc(-c2c[nH]c3ncc(Cl)cc23)ncc1F` [Compound 447], the inhibition constant (Ki) in experiment [1] was 500 to 5000 nM; in experiment [2], less than 500 nM; in experiment [3], 500 to 5000 nM; in experiment [4] it was 500 to 5000 nM.

On to `Fc1cnc(-c2c[nH]c3ncc(Cl)cc23)nc1NCC1CCCCN1` (stereo not shown) [Compound 325], for which the inhibitory constant (Ki) in experiment [1] is 500 to 5000 nM; in experiment [2] it was less than 500 nM; in experiment [3], less than 500 nM; in experiment [4] it was less than 500 nM.

Turning to `C[C@H](Nc1nc(-c2c[nH]c3ncc(Cl)cc23)ncc1F)C(=O)NCCN` [Compound 431], the inhibitory constant (Ki) in experiment [1] is 500 to 5000 nM; in experiment [2] it was less than 500 nM; in experiment [3] it was less than 500 nM; in experiment [4] it was less than 500 nM.

In the case of `C[C@H](Nc1nc(-c2c[nH]c3ncc(Cl)cc23)ncc1F)C(=O)NCCC#N` [Compound 461], the Ki in experiment [2], in experiment [3] and in experiment [4] was less than 500 nM each time.

As to `C[C@H](Nc1nc(-c2c[nH]c3ncc(Cl)cc23)ncc1F)C(=O)NCCNC(=O)OCc1ccccc1` [Compound 458], the inhibitory constant (Ki) in experiment [2], in experiment [3] and in experiment [4] was less than 500 nM throughout.

With `O=C(CNc1nc(-c2c[nH]c3ncc(Cl)cc23)ncc1F)NCC(F)(F)F` [Compound 400], the figures for the inhibitory constant (Ki) in experiment [1], in experiment [2] and in experiment [3] were 500 to 5000 nM, less than 500 nM and less than 500 nM, respectively.

For the compound `C[C@@H](Nc1cccc(-c2c[nH]c3ncc(Cl)cc23)n1)c1ccccc1` [Compound 260], the Ki in experiment [1] was 500 to 5000 nM; in experiment [2], less than 500 nM; in experiment [3], less than 500 nM.

For `C[C@H](Nc1nc(-c2c[nH]c3ncc(Cl)cc23)ncc1F)C(=O)NCCO` [Compound 391], the Ki in experiment [5] was less than 500 nM; in experiment [1] it was 500 to 5000 nM; in experiment [2], less than 500 nM; in experiment [3], less than 500 nM.

As to `C[C@H](Nc1nc(-c2c[nH]c3ncc(Cl)cc23)ncc1F)c1cccc(NC(=O)OC(C)(C)C)c1` [Compound 331], the inhibition constant Ki is 500 to 5000 nM in experiment [1], less than 500 nM in experiment [2] and less than 500 nM in experiment [3].
